{
  "source": "patent US20230355511A1",
  "about": "“BIO[…] AND SOLVENT COMPOSITIONS AND SYSTEMS FOR EXTENDED STORAGE AND […] OF ACTIVE PHARMACEUTICAL INGREDIENTS” (TOLMAR INTERNATIONAL LIMITED, priority 2020, published 2023)",
  "experiment": "In vitro release of TU, jar technique, 1% CTAB in TRIS buffer pH 8.7, 37° C.",
  "assay_type": "in vitro ADME",
  "details": "FIG. 14, Table 11 formulations, 200 mg depot in 200 mL media",
  "protocol": "The in vitro release profiles of solidifying liquid polymer formulations containing TU were conducted using jar technique method with 1% CTAB surfactant in TRIS buffer, pH 8.7 at 37° C. Depots were made by injecting 200 mg of formulation into 200 mL release media. Samples were then periodically collected and analyzed for released drug content. […] Non-formulated TU with a particle size of 67 μm (i.e., with no polymer) were also analyzed as a reference. Additionally, a 20% TU non-solidifying liquid polymer comprising 30% of a 14.2 kDa PDLCL liquid polymer with 25% NMP and 25% PEG 300 was prepared as a reference.",
  "data": [
    {"smiles": "CCCCCCCCCCC(=O)O[C@H]1CC[C@H]2[C@@H]3CCC4=CC(=O)CC[C@]4(C)[C@H]3CC[C@]12C", "note": "[non-formulated TU particles, testosterone undecanoate]", "values": [
      {"measurement": "TU released within the first 7 days", "value": "approximately 75%"}
    ]}
  ]
}
